Tests used:
Type in all cases: cell-based, human
Mfn2 [1] = test: Mfn2 modification and degradation in A-T/LV shRNA cells treated with mitochondrial depolarizing agents
Procedure: Immunoblotting Analysis of Mitochondrial Proteins—Mitochondria were isolated from A-T/LV control and ISG15 shRNA cells using the Miochondrial Isolation Kit (Thermo Scientific Company, 89874). The Dounce homogenization protocol described by the manufacturer was used to isolate mitochondria from cells. Mitochondrial pellets were resuspended in lysis buffer containing 50 mM Tris pH 7.5 and 4% (v/v) SDS. Samples were homogenized and boiled for 10 min. Lysates containing equal protein were then mixed with 6× Laemmli SDS sample buffer (3× final concentration). Samples were boiled again and mitochondrial proteins were analyzed by SDS-PAGE. Immunoblotting analyses using either anti-ISG15 (raised against human ISG15) (20), anti-ubiquitin (gift from Dr. Arthur Haas, at LSUHSC—New Orleans), or anti-mitofusin 2 (Abcam, ab88569) antibodies were carried out using the ECL Western procedure (Pierce, 34076) and the BioRad VersaDoc Imaging System (BioRad). Immunoblotting Analysis of HA Polyubiquitylated Proteins in Cells: Cells were transfected with HA-ubiquitin using the PolyFect transfection reagent (Qiagen, 301105). Twenty four hours after transfection, mitochondria were isolated as described above. Mitochondrial lysis, SDS-PAGE, and immunoblotting analysis to detect HA-ubiquitin conjugated proteins using anti-HA antibodies were carried out as described above. Immunoblotting Analysis of Mfn2 in Cells: Cells were lysed in lysis buffer containing 50 mM Tris-HCl, pH 7.5, 2% SDS, and protease inhibitor cocktail. Lysates were sonicated, boiled, and cleared by centrifugation. Lysates containing equal protein were then mixed with 6× Laemmli SDS sample buffer (3× final concentration). Samples were boiled again and proteins were separated by 15% SDS-PAGE. Immunoblotting analysis was carried out using anti-Mfn2 antibodies (Abcam) as described above. Intensity of the Mfn2 bands was quantitated using BioRad Quantity One software. Statistical analysis—Statistical analysis was carried out using GraphPad software.
Many outer mitochondrial membrane (OMM) proteins are ubiquitylated and degraded via the 26S proteasome prior to mitophagy in cells treated with the mitochondrial depolarizing agents (28,29). To test whether ISG15 inhibits polyubiquitylation of OMM proteins, we assessed the fate of Mfn2, an OMM protein and proteasome substrate, in A-T/LV-control and A-T/LV-ISG15-silenced cells treated with two different mitochondrial depolarizing agents, valinomycin and carbonylcyanide m-chlorophenylhydrazone (CCCP). Consistent with the literature reports (29,35,36), we observed a ladder of high molecular weight anti-Mfn2 cross-reactive bands above the 86 kDa Mfn2 protein band that is reminiscent of polyubiquitylation, in both ISG15-silenced and ISG15 overexpressing A-T cells (FIGS. 34 A and B, left panels). The endogenous level of these high molecular weight Mfn2 cross-reactive bands was remarkably higher in ISG15-silenced as compared to the ISG15-overexpressing A-T cells in the absence of any drugs (FIGS. 34A and B, first panels, compare lanes 1 and 4). […] In contrast, the level of these Mfn2 cross-reactive high molecular weight bands decreased under the same drug treatment conditions in ISG15-silenced A-T cells (FIGS. 34A and B, first panels, lanes 4-6, and the accompanying bar graph in the second panel for quantitation). […] The bar graphs in FIGS. 34A and B, third panels, show mean values of the ratio between free Mfn2 (86 kDa band) and actin proteins (±SEM) in CCCP-treated A-T/LV-control and ISG15 shRNA cells measured from eight independent experiments, and valinomycin-treated A-T/LV-control and ISG15 shRNA cells measured from three independent experiments respectively.

Mfn2 [2] = test: MFN2 modification and degradation in HEK293 cells treated with CCCP; settings: HEK cells, CCCP 10 μM, 24 h
From the text: MFN2 is conjugated to SUMO-1/2/3 and ubiquitin, and is degraded in HEK293 cells treated with CCCP. We confirmed CCCP-induced MFN2-SUMO/ubiquitin modification and degradation in “normal” HEK293 cells. […] However, CCCP-mediated decrease in MFN2 was proteasome-dependent (FIG. 37D). Together, our results using A-T and HEK293 cells reveal that MFN2 is SUMOylated in response to CCCP treatment.

[3] = tested on: polyubiquitylated proteins; test: Camptothecin-induced degradation of polyubiquitylated proteins in A-T cells; settings: CPT 10 μm, 24 hr
Procedure: To test the generality of this observation, the anticancer drug camptothecin (CPT), a genotoxic agent (37, 48-50), which is known to sensitize A-T cells (37), like UV, was used to induce degradation of polyubiquitylated proteins in A-T cells. In FIG. 8E, A-T cells were treated with camptothecin (CPT; 10 μm) in the presence or absence of Bafl (1 nm) for 24 hr. Ubiquitin conjugated proteins using anti-ubiquitin antibodies were detected as described herein for FIG. 8A. The experiment was repeated three times.

SMILES: N#CC(C#N)=NNc1cccc(Cl)c1 [CCCP, carbonylcyanide m-chlorophenylhydrazone]
- free MFN2 protein level (Mfn2 [1]; CCCP-treated ISG15 overexpressing A-T cells): remained unaffected
- decrease in the free MFN2 level (Mfn2 [1]; ISG15-silenced A-T cells, CCCP 24 h, cell lysates and immunoprecipitates): 20%
- free Mfn2 protein level (Mfn2 [1]; ISG15 overexpressing A-T cells, 24 hr): slightly increased
- conjugation of SUMO-1, SUMO-2/3, and ubiquitin to MFN2 (Mfn2 [2]): induces conjugation
- degradation of MFN2 (Mfn2 [2]): 20%

SMILES: CC[C@@]1(O)C(=O)OCc2c1cc1n(c2=O)Cc2cc3ccccc3nc2-1 [CPT, camptothecin]
- degradation of endogenous polyubiquitylated proteins [3]: induced degradation

Source: patent publication US12085575B2, “Compositions and methods for detecting proteinopathies” (BOARD OF SUPERVISORS OF LOUISIANA STATE UNIVERSITY AND …, priority 2011, dated 2024)
